Consider 34 molecules from PubChem BioAssay AID602284 (Broad Institute, 2012).

Activity calls are given as the source filed them.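 How the source made its calls: active means every test run fits a half-maximal inhibitory dose no higher than twice its top dose tested; inconclusive means runs disagree, flat partial inhibition, or poor curve fit; inactive means the rest.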

In general, AC50 refers to the concentration giving half of the maximal activity seen.

The target of the first assay is Cyclin-dependent kinase 5 activator 1 (Homo sapiens) + Cyclin-dependent kinase 5 (Homo sapiens) (UniProt Q15078+Q00535). The experiment in a line: inhibition of CDK5-p35 phosphorylation activity – biochemical, ADP-Glo luminescence, dry powder samples, dose response (AID 602284). Particulars: histone H1 peptide. On the technique in general: ADP-Glo turns the ADP formed in a reaction into a luminescent signal.
Chain of Cyclin-dependent kinase 5 activator 1 (Homo sapiens) + Cyclin-dependent kinase 5 (Homo sapiens) (Q00535 whole entry, looked up): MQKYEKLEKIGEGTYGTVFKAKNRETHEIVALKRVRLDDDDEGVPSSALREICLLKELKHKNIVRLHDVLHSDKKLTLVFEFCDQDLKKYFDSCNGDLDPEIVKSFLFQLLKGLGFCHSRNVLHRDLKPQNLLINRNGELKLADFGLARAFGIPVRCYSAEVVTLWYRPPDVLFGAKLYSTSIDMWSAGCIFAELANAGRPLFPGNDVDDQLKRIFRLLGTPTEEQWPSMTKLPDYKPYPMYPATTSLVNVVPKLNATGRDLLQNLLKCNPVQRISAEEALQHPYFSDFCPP
Chain of Cyclin-dependent kinase 5 activator 1 (Homo sapiens) + Cyclin-dependent kinase 5 (Homo sapiens) (Q15078 whole entry, looked up): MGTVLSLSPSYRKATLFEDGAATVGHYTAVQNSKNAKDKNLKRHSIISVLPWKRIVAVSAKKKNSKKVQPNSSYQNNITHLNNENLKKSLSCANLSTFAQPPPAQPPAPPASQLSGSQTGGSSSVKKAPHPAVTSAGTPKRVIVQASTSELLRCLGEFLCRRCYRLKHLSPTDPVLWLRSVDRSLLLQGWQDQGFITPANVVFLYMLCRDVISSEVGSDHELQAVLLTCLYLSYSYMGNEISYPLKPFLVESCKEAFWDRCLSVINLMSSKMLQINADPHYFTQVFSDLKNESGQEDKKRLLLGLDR
For the molecule `CCCn1c(NC(=O)c2cccc(S(=O)(=O)N(CC)CC)c2)nc2ccccc21`, the AC50 was 2.95 µM. `CCn1c(NC(=O)c2cccc(S(=O)(=O)NC)c2)nc2ccccc21`: the AC50 was 29.1 µM.

For `CCCn1c(NC(=O)c2cccc(S(=O)(=O)N3CCCCC3)c2)nc2ccccc21`, the AC50 was 13.5 µM. Still for that read-out and setting: in the case of `CC(C)(C)n1c(NC(=O)c2cccc(S(C)(=O)=O)c2)nc2ccccc21` it was 12.3 µM; in that of `CCCn1c(NC(=O)c2cccc(S(=O)(=O)N(C)C)c2)nc2ccccc21`, 10.2 µM.

The same assay, now with this note: histone H1 peptide, at 0.38 µM (top of the series).
In the case of `c1ccc(N2CCNCC2)nc1`, the “activity change, negative = inhibition” value is “inactive”.

Still in this assay, the particulars now being: histone H1 peptide, at 10 µM (top of the series).
Regarding `O=C(c1ccccc1)N1CCN(c2ccccn2)CC1`, the “activity change, negative = inhibition” value was “inactive”.

Staying with this assay, now noted: histone H1 peptide, at 30 µM (top of the series).
Turning to `COc1cc(C(=O)N2CCN(c3ccccc3)CC2)cc(OC)c1OC`, the “activity change, negative = inhibition” value is “inactive”.

`O=C(c1ccc(Cl)cc1)N1CCN(c2ccc(C(F)(F)F)cn2)CC1`: the “activity change, negative = inhibition” value was “inactive”.

On to `COc1ccc(C(=O)N2CCN(c3ccccn3)CC2)cc1`, for which the “activity change, negative = inhibition” value was “inactive”. On the same count and under the same terms, the same measure for `Cc1ccc(N2CCN(C(=O)c3ccc(Cl)cc3)CC2)nc1`: “inactive”; for `COCCC(=O)N1CCN(c2ccccn2)CC1`: “inactive”; for `O=C(c1ccc(Cl)cc1)N1CCN(c2ncccc2C(F)(F)F)CC1`: “inactive”. As for `O=C(c1ccccc1Cl)N1CCN(c2ccccn2)CC1`, the “activity change, negative = inhibition” value was “inactive”. Still for that read-out and setting: in the case of `COc1cccnc1N1CCN(C(=O)c2ccc(Cl)cc2)CC1` it was “inactive”; in that of `O=C(c1ccc(Cl)cc1)N1CCN(c2ccccn2)CC1`, “inactive”; in that of `Cc1ccc(C(=O)N2CCN(c3ccccn3)CC2)cc1`, “inactive”. The same measure, in the same setting: the same measure for `O=C(c1cccc(Cl)c1)N1CCN(c2ccccn2)CC1`: “inactive”. Consider `COc1cccc(C(=O)N2CCN(c3ccccn3)CC2)c1`, for which the “activity change, negative = inhibition” value was “inactive”.

Regarding `N#Cc1ccc(C(=O)N2CCN(c3ccccn3)CC2)cc1`, the “activity change, negative = inhibition” value is “inactive”. The same measure, in the same setting: in the case of `COc1cc(C(=O)N2CCN(c3ccccn3)CC2)cc(OC)c1OC` it was “inactive”. For `O=C(C1CCCCC1)N1CCN(c2ccccn2)CC1`, the “activity change, negative = inhibition” value is “inactive”. On the same count and under the same terms, in the case of `CCCn1c(NC(=O)c2ccc(OC)c(S(=O)(=O)N3CCCC3)c2)nc2ccccc21` it was “inactive”. The same measure, in the same setting: the same measure for `CCOc1cc(C(=O)N2CCN(c3ccccn3)CC2)cc(OCC)c1OCC`: “inactive”; for `N#Cc1cccnc1N1CCN(C(=O)c2ccc(Cl)cc2)CC1`: “inactive”; for `COc1ccnc(N2CCN(C(=O)c3ccc(Cl)cc3)CC2)c1`: “inactive”. For `N#Cc1ccc(N2CCN(C(=O)c3ccc(Cl)cc3)CC2)nc1`, the “activity change, negative = inhibition” value is “inactive”.

`CC(C)C(=O)N1CCN(c2ccccn2)CC1`: the “activity change, negative = inhibition” value is “inactive”. For `CCCCC(=O)N1CCN(c2ccccn2)CC1`, the “activity change, negative = inhibition” value was “inactive”. For the molecule `Cc1cccc(N2CCN(C(=O)c3ccc(Cl)cc3)CC2)n1`, the “activity change, negative = inhibition” value was “inactive”. Still for that read-out and setting: the same measure for `Cc1ccnc(N2CCN(C(=O)c3ccc(Cl)cc3)CC2)c1`: “inactive”; for `O=C(c1ccc(Cl)cc1)N1CCN(c2cccc(C(F)(F)F)n2)CC1`: “inactive”; for `O=C(c1ccc(F)cc1)N1CCN(c2ccccn2)CC1`: “inactive”. On to `CCCn1c(NC(=O)c2ccc(Cl)c(S(=O)(=O)N3CCCC3)c2)nc2ccccc21`, for which the “activity change, negative = inhibition” value is “inactive”.
